Laboratory results as given in patent publication US12077503B2, “Substituted cyclic amides and their use as herbicides” (FMC CORPORATION, priority 2015, dated 2024).
Where two headings read alike, the source gives them in different places.

Assays:
Type in all cases: in vivo
[1] = test system: giant foxtail (Setaria faberii); test: Test A preemergence; conditions: Setaria faberi, pre-emergence, 240 h; for pest or weed control at 125 g/ha: 125 g ai/ha, 0 to 100 scale where 0 is no effect and 100 is complete control; for pest or weed control at 500 g/ha: 500 g ai/ha
Method in brief: (§1)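 Seeded soil received test chemicals as a preemergence directed spray, and seedlings at one to two leaves, 2–10 cm tall, received them postemergence, in a non-phytotoxic, surfactant-containing solvent mixture. Pots were held in a greenhouse for approximately 10 d, then rated for injury from 0, no effect, to 100, complete control.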

[2] = test system: ragweed (common ragweed, Ambrosia elatior); test: Test A preemergence; conditions: Ambrosia artemisiifolia, pre-emergence, 240 h; for pest or weed control at 125 g/ha: 125 g ai/ha, 0 to 100 scale where 0 is no effect and 100 is complete control; for pest or weed control at 500 g/ha: 500 g ai/ha
Method in brief: as §1

[3] = test system: pigweed (Amaranthus retroflexus); test: Test A preemergence; conditions: Amaranthus retroflexus, pre-emergence, 240 h; for pest or weed control at 125 g/ha: 125 g ai/ha, 0 to 100 scale where 0 is no effect and 100 is complete control; for pest or weed control at 500 g/ha: 500 g ai/ha
[4] = test system: ryegrass, Italian (Italian ryegrass, Lolium multiflorum); test: Test A preemergence; conditions: Lolium multiflorum, pre-emergence, 240 h; for pest or weed control at 125 g/ha: 125 g ai/ha, 0 to 100 scale where 0 is no effect and 100 is complete control; for pest or weed control at 500 g/ha: 500 g ai/ha
Method in brief: as §1

[5] = test system: barnyardgrass (Echinochloa crus-galli); test: Test A preemergence; conditions: Echinochloa crus-galli, pre-emergence, 240 h; for pest or weed control at 125 g/ha: 125 g ai/ha, 0 to 100 scale where 0 is no effect and 100 is complete control; for pest or weed control at 500 g/ha: 500 g ai/ha
Method in brief: as §1

Kochia (Kochia scoparia) [6] = test: Test A preemergence; conditions: Bassia scoparia, pre-emergence, 240 h; for pest or weed control at 125 g/ha: 125 g ai/ha, 0 to 100 scale where 0 is no effect and 100 is complete control; for pest or weed control at 500 g/ha: 500 g ai/ha
Method in brief: as §1

[7] = test system: giant foxtail (Setaria faberii); test: Test A postemergence; conditions: Setaria faberi, post-emergence, 240 h, 125 g ai/ha
Method in brief: as §1

[8] = test system: ragweed (common ragweed, Ambrosia elatior); test: Test A postemergence; conditions: Ambrosia artemisiifolia, post-emergence, 240 h, 125 g ai/ha
Method in brief: as §1

[9] = test system: pigweed (Amaranthus retroflexus); test: Test A postemergence; conditions: Amaranthus retroflexus, post-emergence, 240 h, 125 g ai/ha
Method in brief: as §1

[10] = test system: ryegrass, Italian (Italian ryegrass, Lolium multiflorum); test: Test A postemergence; conditions: Lolium multiflorum, post-emergence, 240 h, 125 g ai/ha
Method in brief: as §1

[11] = test system: barnyardgrass (Echinochloa crus-galli); test: Test A postemergence; conditions: Echinochloa crus-galli, post-emergence, 240 h, 125 g ai/ha
Method in brief: as §1

Kochia (Kochia scoparia) [12] = test: Test A postemergence; conditions: Bassia scoparia, post-emergence, 240 h, 125 g ai/ha
Method in brief: as §1

[13] = test system: wheat (Triticum aestivum); test: Test A postemergence; conditions: Triticum aestivum, post-emergence, 240 h, 125 g ai/ha
Method in brief: as §1

[14] = test system: Galium (catchweed bedstraw, Galium aparine); test: Test A postemergence; conditions: Galium, post-emergence, 240 h, 125 g ai/ha
Method in brief: as §1

corn (Zea mays) = test: Test A postemergence; conditions: Zea mays, post-emergence, 240 h, 125 g ai/ha; for Corn plant response rating (crop injury, 0 = no effect, 100 = complete kill) at 125 g/ha: Postemergence, visual injury after approximately 10 d, 0 to 100 scale where 0 is no effect and 100 is complete control
Method in brief: as §1

[15] = test system: blackgrass (Alopecurus myosuroides); test: Test A postemergence; conditions: Alopecurus myosuroides, post-emergence, 240 h, 125 g ai/ha
Method in brief: as §1

[16] = preemergence, read-out: Foxtail, Giant plant response rating
[17] = Preemergence, visual injury vs untreated controls after approximately 10 d, read-out: Foxtail, Giant plant response rating (0 to 100 scale where 0 is no effect and 100 is complete control)
[18] = preemergence, read-out: Ragweed plant response rating
[19] = Preemergence, visual injury vs untreated controls after approximately 10 d, read-out: Ragweed plant response rating (0 to 100 scale where 0 is no effect and 100 is complete control)
[20] = preemergence, read-out: Pigweed plant response rating
[21] = Preemergence, visual injury vs untreated controls after approximately 10 d, read-out: Pigweed plant response rating (0 to 100 scale where 0 is no effect and 100 is complete control)
[22] = preemergence, read-out: Ryegrass, Italian plant response rating
[23] = Preemergence, visual injury vs untreated controls after approximately 10 d, read-out: Ryegrass, Italian plant response rating (0 to 100 scale where 0 is no effect and 100 is complete control)
[24] = preemergence, read-out: Barnyardgrass plant response rating
[25] = Preemergence, visual injury vs untreated controls after approximately 10 d, read-out: Barnyardgrass plant response rating (0 to 100 scale where 0 is no effect and 100 is complete control)
[26] = preemergence, read-out: Kochia plant response rating
[27] = Preemergence, visual injury vs untreated controls after approximately 10 d, read-out: Kochia plant response rating (0 to 100 scale where 0 is no effect and 100 is complete control)
[28] = Postemergence, visual injury after approximately 10 d, 0 to 100 scale where 0 is no effect and 100 is complete control, read-out: Plant response rating, Foxtail, Giant
[29] = Postemergence, visual injury after approximately 10 d, 0 to 100 scale where 0 is no effect and 100 is complete control, read-out: Plant response rating, Ragweed
[30] = Postemergence, visual injury after approximately 10 d, 0 to 100 scale where 0 is no effect and 100 is complete control, read-out: Plant response rating, Pigweed
[31] = Postemergence, visual injury after approximately 10 d, 0 to 100 scale where 0 is no effect and 100 is complete control, read-out: Plant response rating, Ryegrass, Italian
[32] = Postemergence, visual injury after approximately 10 d, 0 to 100 scale where 0 is no effect and 100 is complete control, read-out: Plant response rating, Barnyardgrass
[33] = Postemergence, visual injury after approximately 10 d, 0 to 100 scale where 0 is no effect and 100 is complete control, read-out: Plant response rating, Kochia
[34] = Postemergence, visual injury after approximately 10 d, 0 to 100 scale where 0 is no effect and 100 is complete control, read-out: Plant response rating, Wheat
[35] = Postemergence, visual injury after approximately 10 d, 0 to 100 scale where 0 is no effect and 100 is complete control, read-out: Plant response rating, Galium
[36] = Postemergence, visual injury after approximately 10 d, 0 to 100 scale where 0 is no effect and 100 is complete control, read-out: Plant response rating, Blackgrass

| SMILES | pest or weed control at 125 g/ha [1, 16] [%] | pest or weed control at 500 g/ha [1, 17] [%] | pest or weed control at 125 g/ha [2, 18] [%] | pest or weed control at 500 g/ha [2, 19] [%] | pest or weed control at 125 g/ha [3, 20] [%] | pest or weed control at 500 g/ha [3, 21] [%] | pest or weed control at 125 g/ha [4, 22] [%] | pest or weed control at 500 g/ha [4, 23] [%] | pest or weed control at 125 g/ha [5, 24] [%] | pest or weed control at 500 g/ha [5, 25] [%] | pest or weed control at 125 g/ha (Kochia (Kochia scoparia) [6]; [26]) [%] | pest or weed control at 500 g/ha (Kochia (Kochia scoparia) [6]; [27]) [%] | pest or weed control at 125 g/ha [7, 28] [%] | pest or weed control at 125 g/ha [8, 29] [%] | pest or weed control at 125 g/ha [9, 30] [%] | pest or weed control at 125 g/ha [10, 31] [%] | pest or weed control at 125 g/ha [11, 32] [%] | pest or weed control at 125 g/ha (Kochia (Kochia scoparia) [12]; [33]) [%] | plant injury at 125 g/ha [13, 34] [%] | pest or weed control at 125 g/ha [14, 35] [%] | other results |
| --- | --- | --- | --- | --- | --- | --- | --- | --- | --- | --- | --- | --- | --- | --- | --- | --- | --- | --- | --- | --- | --- |
| COc1c(F)ccc([C@H]2CN(C)C(=O)[C@@H]2C(=O)Nc2ccc(F)cc2F)c1Cl [Compound 894] | 90 | 100 | 0 | 40 | 20 | 50 | 50 | 60 | 90 | 100 | 60 | 90 | – | – | – | – | – | – | – | – | pest or weed control at 125 g/ha ([7]; postemergence, visual injury rating after approximately 10 d, read-out: Foxtail, Giant plant response rating (0 to 100 scale, 0 no effect, 100 complete control)): 90%; pest or weed control at 125 g/ha ([8]; postemergence, visual injury rating after approximately 10 d, read-out: Ragweed plant response rating (0 to 100 scale, 0 no effect, 100 complete control)): 0%; pest or weed control at 125 g/ha ([9]; postemergence, visual injury rating after approximately 10 d, read-out: Pigweed plant response rating (0 to 100 scale, 0 no effect, 100 complete control)): 0%; pest or weed control at 125 g/ha ([10]; postemergence, visual injury rating after approximately 10 d, read-out: Ryegrass, Italian plant response rating (0 to 100 scale, 0 no effect, 100 complete control)): 50%; pest or weed control at 125 g/ha ([11]; postemergence, visual injury rating after approximately 10 d, read-out: Barnyardgrass plant response rating (0 to 100 scale, 0 no effect, 100 complete control)): 90%; pest or weed control at 125 g/ha (Kochia (Kochia scoparia) [12]; postemergence, visual injury rating after approximately 10 d, read-out: Kochia plant response rating (0 to 100 scale, 0 no effect, 100 complete control)): 50%; plant injury at 125 g/ha ([13]; postemergence, visual injury rating after approximately 10 d, read-out: Wheat plant response rating (0 to 100 scale, 0 no effect, 100 complete control)): 20%; pest or weed control at 125 g/ha ([14]; postemergence, visual injury rating after approximately 10 d, read-out: Galium plant response rating (0 to 100 scale, 0 no effect, 100 complete control)): 40%; plant injury at 125 g/ha (corn (Zea mays); postemergence, visual injury rating after approximately 10 d, read-out: Corn plant response rating (0 to 100 scale, 0 no effect, 100 complete control)): 60%; pest or weed control at 125 g/ha ([15]; postemergence, visual injury rating after approximately 10 d, read-out: Blackgrass plant response rating (0 to 100 scale, 0 no effect, 100 complete control)): 0% |
| COc1ccc(CN2CC[C@H](c3ccc(F)cc3)[C@@H](C(=O)Nc3cccc(F)c3F)C2=O)cc1 [Compound 919] | 0 | 0 | 0 | 0 | 0 | 0 | 0 | 0 | 0 | 0 | 0 | 0 | 0 | 0 | 0 | 0 | 0 | 0 | 0 | 0 | Corn plant response rating (crop injury, 0 = no effect, 100 = complete kill) at 125 g/ha (corn (Zea mays)): 0%; pest or weed control at 125 g/ha [15, 36]: 0% |
| CN1C[C@H](c2ccc(C(F)(F)F)cc2)[C@@H](C(=O)Nc2cccc(F)c2Br)C1=O [Compound 937] | 90 | – | – | – | 50 | – | – | – | 90 | – | 80 | – | 90 | 20 | 60 | 20 | 70 | 30 | 20 | 70 | pest or weed control at 500 g/ha ([1]; preemergence, visual injury rating about 10 d after treatment, 0 to 100 scale (0 no effect, 100 complete control), read-out: Foxtail, Giant plant response rating): 90%; pest or weed control at 500 g/ha ([2]; preemergence, visual injury rating about 10 d after treatment, 0 to 100 scale (0 no effect, 100 complete control), read-out: Ragweed plant response rating): 80%; pest or weed control at 500 g/ha ([3]; preemergence, visual injury rating about 10 d after treatment, 0 to 100 scale (0 no effect, 100 complete control), read-out: Pigweed plant response rating): 80%; pest or weed control at 500 g/ha ([4]; preemergence, visual injury rating about 10 d after treatment, 0 to 100 scale (0 no effect, 100 complete control), read-out: Ryegrass, Italian plant response rating): 50%; pest or weed control at 500 g/ha ([5]; preemergence, visual injury rating about 10 d after treatment, 0 to 100 scale (0 no effect, 100 complete control), read-out: Barnyardgrass plant response rating): 90%; pest or weed control at 500 g/ha (Kochia (Kochia scoparia) [6]; preemergence, visual injury rating about 10 d after treatment, 0 to 100 scale (0 no effect, 100 complete control), read-out: Kochia plant response rating): 80%; Corn plant response rating (crop injury, 0 = no effect, 100 = complete kill) at 125 g/ha (corn (Zea mays)): 20%; pest or weed control at 125 g/ha [15, 36]: 30% |
